Our source for the IC50 values is patent US8703768B2, “Nitrogen containing heteroaryl compounds” (Hoffmann-La Roche Inc., priority 2010, dated 2014).

The target in this assay is human PDE10A (Homo sapiens (Human), UniProt Q9Y233). In words: human PDE10A full length Scintillation Proximity Assay (SPA). The format is biochemical. As to conditions: 50 nM cGMP and 50 nM [3H]-cGMP, 20 minutes at room temperature; read-out: PDE10A inhibition IC50. A digest of the protocol:
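Radiometric SPA read-out: after 20 min at room temperature with [^3H]-cGMP/cGMP substrate, zinc sulphate (18 mM) bead stop reagent added and counts read after 1 h. Non-specific signal defined without enzyme; full-length protein used.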

Chain of human PDE10A (Q9Y233 other isoform, or with tags, fused parts or gaps): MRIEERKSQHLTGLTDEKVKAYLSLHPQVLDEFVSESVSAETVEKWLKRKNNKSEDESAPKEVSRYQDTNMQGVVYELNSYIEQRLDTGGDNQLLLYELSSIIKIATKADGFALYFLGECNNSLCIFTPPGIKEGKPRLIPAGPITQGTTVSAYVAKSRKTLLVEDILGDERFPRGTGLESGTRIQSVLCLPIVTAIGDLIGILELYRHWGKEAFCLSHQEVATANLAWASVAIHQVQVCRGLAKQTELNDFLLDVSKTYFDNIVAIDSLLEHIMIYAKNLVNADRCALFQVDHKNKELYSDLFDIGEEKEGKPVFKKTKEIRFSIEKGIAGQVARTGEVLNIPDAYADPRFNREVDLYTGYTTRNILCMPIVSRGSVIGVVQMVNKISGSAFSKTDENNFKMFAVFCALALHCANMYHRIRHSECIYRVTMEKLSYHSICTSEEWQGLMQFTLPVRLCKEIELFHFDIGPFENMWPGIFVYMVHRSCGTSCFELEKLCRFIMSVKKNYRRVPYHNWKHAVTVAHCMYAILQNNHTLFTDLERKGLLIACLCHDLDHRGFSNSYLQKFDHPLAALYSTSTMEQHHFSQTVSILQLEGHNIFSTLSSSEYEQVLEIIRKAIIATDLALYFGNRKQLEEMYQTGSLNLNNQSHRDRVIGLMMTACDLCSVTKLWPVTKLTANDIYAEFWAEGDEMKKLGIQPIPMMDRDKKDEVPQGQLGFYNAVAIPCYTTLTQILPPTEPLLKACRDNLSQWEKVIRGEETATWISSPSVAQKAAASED

In the case of `Cn1ncc(NC(=O)c2nc(C3CC3)cnc2Nc2cncnc2)c1C(=O)NC(C)(C)CO` [Example 152, 6-Cyclopropyl-3-(pyrimidin-5-ylamino)-pyrazine-2-carboxylic acid [5-(2-hydroxy-1,1-dimethyl-ethylcarbamoyl)-1-methyl-1H-pyrazol-4-yl]-amide], the half-maximal inhibitory concentration (IC50) worked out at 3.4 nM. For `CN(CC(C)(C)O)C(=O)c1c(NC(=O)c2nc(C3CC3)cnc2Nc2cncnc2)cnn1C` [Example 153, 6-Cyclopropyl-3-(pyrimidin-5-ylamino)-pyrazine-2-carboxylic acid {5-[(2-hydroxy-2-methyl-propyl)-methyl-carbamoyl]-1-methyl-1H-pyrazol-4-yl}-amide], the IC50 turned out to be 16.1 nM. Regarding `Cn1ncc(NC(=O)c2nc(C3CC3)cnc2Nc2cncnc2)c1C(=O)N1CCC1` [Example 155, 6-Cyclopropyl-3-(pyrimidin-5-ylamino)-pyrazine-2-carboxylic acid [5-(azetidine-1-carbonyl)-1-methyl-1H-pyrazol-4-yl]-amide], the IC50 came to 12.7 nM. Consider `Cn1ncc(NC(=O)c2nc(C3CC3)cnc2Nc2cncnc2)c1C(=O)N1CCCC1` [Example 156, 6-Cyclopropyl-3-(pyrimidin-5-ylamino)-pyrazine-2-carboxylic acid [1-methyl-5-(pyrrolidine-1-carbonyl)-1H-pyrazol-4-yl]-amide], for which the IC50 was 11.2 nM.

Turning to `CNC(=O)c1nc(C2CC2)ccc1NC(=O)c1nc(C2CC2)cnc1Nc1cncnc1` [Example 158, 6-Cyclopropyl-3-(pyrimidin-5-ylamino)-pyrazine-2-carboxylic acid (6-cyclopropyl-2-methylcarbamoyl-pyridin-3-yl)-amide], the IC50 was found to be 0.8 nM.

Consider `CC(C)(O)CNC(=O)c1nc(C2CC2)ccc1NC(=O)c1nc(C2CC2)cnc1Nc1cncnc1` [Example 159, 6-Cyclopropyl-3-(pyrimidin-5-ylamino)-pyrazine-2-carboxylic acid [6-cyclopropyl-2-(2-hydroxy-2-methyl-propylcarbamoyl)-pyridin-3-yl]-amide], for which the IC50 came to 0.4 nM. As to `CNC(=O)c1c(NC(=O)c2nc(C3CCOC3)cnc2Nc2cncnc2)cnn1C` (centres unmarked) [Example 160, 3-(Pyrimidin-5-ylamino)-6-(tetrahydro-furan-3-yl)-pyrazine-2-carboxylic acid (1-methyl-5-methylcarbamoyl-1H-pyrazol-4-yl)-amide], the IC50 turned out to be 2.9 nM. The figure for `Cn1ncc(NC(=O)c2nc(C3CC3)c(C3CCCO3)nc2Nc2cncnc2)c1C(=O)NCCF` (centres unmarked) [Example 162, 6-Cyclopropyl-3-(pyrimidin-5-ylamino)-5-(tetrahydro-furan-2-yl)-pyrazine-2-carboxylic acid [5-(2-fluoro-ethylcarbamoyl)-1-methyl-1H-pyrazol-4-yl]-amide] is 124 nM; for `O=C(NC1CC1)c1nocc1NC(=O)c1nc(C2CC2)cnc1Nc1cncnc1` [Example 163, 6-Cyclopropyl-3-(pyrimidin-5-ylamino)-pyrazine-2-carboxylic acid (3-cyclopropylcarbamoyl-isoxazol-4-yl)-amide] it is 6.2 nM; for `CC(NC(=O)c1c(NC(=O)c2nc(C3CC3)cnc2Nc2cncnc2)cnn1C)C(F)(F)F` (centres unmarked) [Example 164, 6-Cyclopropyl-3-(pyrimidin-5-ylamino)-pyrazine-2-carboxylic acid [1-methyl-5-(2,2,2-trifluoro-1-methyl-ethylcarbamoyl)-1H-pyrazol-4-yl]-amide] it is 5.2 nM.

Turning to `Cn1ncc(NC(=O)c2nc(C3CC3)cnc2Nc2cncnc2)c1C(=O)NCC(C)(F)F` [Example 165, 6-Cyclopropyl-3-(pyrimidin-5-ylamino)-pyrazine-2-carboxylic acid [5-(2,2-difluoro-propylcarbamoyl)-1-methyl-1H-pyrazol-4-yl]-amide], the IC50 came out at 2.2 nM.

Consider `CNC(=O)c1c(NC(=O)c2nc(Cl)ccc2Nc2cncnc2)cnn1C` [Example 166, 6-Chloro-3-(pyrimidin-5-ylamino)-pyridine-2-carboxylic acid (1-methyl-5-methylcarbamoyl-1H-pyrazol-4-yl)-amide], for which the concentration for half-maximal inhibition (IC50) is 335 nM. Consider `CC(C)CNC(=O)c1c(NC(=O)c2nc(C3CC3)cnc2Nc2cncnc2)cnn1C` [Example 167, 6-Cyclopropyl-3-(pyrimidin-5-ylamino)-pyrazine-2-carboxylic acid (5-isobutylcarbamoyl-1-methyl-1H-pyrazol-4-yl)-amide], for which the IC50 was determined as 4.4 nM.

For the compound `Cn1ncc(NC(=O)c2nc(C3CC3)cnc2Nc2cncnc2)c1C(=O)N1CCCCC1` [Example 168, 6-Cyclopropyl-3-(pyrimidin-5-ylamino)-pyrazine-2-carboxylic acid [1-methyl-5-(piperidine-1-carbonyl)-1H-pyrazol-4-yl]-amide], the IC50 was determined as 32.9 nM. Take `CCn1ncc(NC(=O)c2nc(C3CC3)cnc2Nc2cncnc2)c1C(=O)N(C)C` [Example 169, 6-Cyclopropyl-3-(pyrimidin-5-ylamino)-pyrazine-2-carboxylic acid (5-dimethylcarbamoyl-1-ethyl-1H-pyrazol-4-yl)-amide]: the IC50 worked out at 22.3 nM. In the case of `CCn1ncc(NC(=O)c2nc(C3CC3)cnc2Nc2cncnc2)c1C(=O)N1CCOCC1` [Example 170, 6-Cyclopropyl-3-(pyrimidin-5-ylamino)-pyrazine-2-carboxylic acid [1-ethyl-5-(morpholine-4-carbonyl)-1H-pyrazol-4-yl]-amide], the IC50 is 88.9 nM. As to `Cn1ncc(NC(=O)c2nc(C3CC3)cnc2Nc2cncnc2)c1C(=O)NCCF` [Example 171, 6-Cyclopropyl-3-(pyrimidin-5-ylamino)-pyrazine-2-carboxylic acid [5-(2-fluoro-ethylcarbamoyl)-1-methyl-1H-pyrazol-4-yl]-amide], the half-inhibitory concentration (IC50) came out at 2.8 nM. In the case of `CC(C)(O)CNC(=O)c1c(NC(=O)c2nc(C3CC3)cnc2Nc2cncnc2)cnn1CCC(F)(F)F` [Example 172, 6-Cyclopropyl-3-(pyrimidin-5-ylamino)-pyrazine-2-carboxylic acid [5-(2-hydroxy-2-methyl-propylcarbamoyl)-1-(3,3,3-trifluoro-propyl)-1H-pyrazol-4-yl]-amide], the IC50 turned out to be 12.9 nM. The figure for `CNC(=O)c1c(NC(=O)c2nc(C3CC3)cnc2Nc2cncnc2)cnn1CCC(F)(F)F` [Example 173, 6-Cyclopropyl-3-(pyrimidin-5-ylamino)-pyrazine-2-carboxylic acid [5-methylcarbamoyl-1-(3,3,3-trifluoro-propyl)-1H-pyrazol-4-yl]-amide] is 19.5 nM; for `Cn1ncc(NC(=O)c2nc(C3CC3)cnc2Nc2cncnc2)c1C(=O)N1CC(F)C1` [Example 174, 6-Cyclopropyl-3-(pyrimidin-5-ylamino)-pyrazine-2-carboxylic acid [5-(3-fluoro-azetidine-1-carbonyl)-1-methyl-1H-pyrazol-4-yl]-amide] it is 14.8 nM. Take `CC(C)(O)CNC(=O)c1c(NC(=O)c2nc(C3CC3)cnc2Nc2cncnc2)cnn1CC(F)(F)F` [Example 175, 6-Cyclopropyl-3-(pyrimidin-5-ylamino)-pyrazine-2-carboxylic acid [5-(2-hydroxy-2-methyl-propylcarbamoyl)-1-(2,2,2-trifluoro-ethyl)-1H-pyrazol-4-yl]-amide]: the 50% inhibitory concentration (IC50) stood at 25 nM. With `CNC(=O)c1nc(C2CCCO2)ccc1NC(=O)c1nc(C2CC2)cnc1Nc1cncnc1` (centres unmarked) [Example 177, 6-Cyclopropyl-3-(pyrimidin-5-ylamino)-pyrazine-2-carboxylic acid [2-methylcarbamoyl-6-(tetrahydro-furan-2-yl)-pyridin-3-yl]-amide], the IC50 is 0.2 nM. The figure for `CC(C)(O)CNC(=O)c1nc(C2CCCO2)ccc1NC(=O)c1nc(C2CC2)cnc1Nc1cncnc1` (centres unmarked) [Example 178, 6-Cyclopropyl-3-(pyrimidin-5-ylamino)-pyrazine-2-carboxylic acid [2-(2-hydroxy-2-methyl-propylcarbamoyl)-6-(tetrahydro-furan-2-yl)-pyridin-3-yl]-amide] is 0.1 nM. Consider `Cn1ncc(NC(=O)c2nc(C3CC3)cnc2Nc2cncnc2)c1C(=O)N1CCOCC1` [Example 179, 6-Cyclopropyl-3-(pyrimidin-5-ylamino)-pyrazine-2-carboxylic acid [1-methyl-5-(morpholine-4-carbonyl)-1H-pyrazol-4-yl]-amide], for which the IC50 was 148 nM.

With `CCc1ccc(NC(=O)c2nc(C3CC3)cnc2Nc2cncnc2)c(C(=O)NC)n1` [Example 180, 6-Cyclopropyl-3-(pyrimidin-5-ylamino)-pyrazine-2-carboxylic acid (6-ethyl-2-methylcarbamoyl-pyridin-3-yl)-amide], the IC50 is 5.5 nM.

For `CCc1ccc(NC(=O)c2nc(C3CC3)cnc2Nc2cncnc2)c(C(=O)NCC(C)(C)O)n1` [Example 181, 6-Cyclopropyl-3-(pyrimidin-5-ylamino)-pyrazine-2-carboxylic acid [6-ethyl-2-(2-hydroxy-2-methyl-propylcarbamoyl)-pyridin-3-yl]-amide], the IC50 is 0.4 nM. The figure for `CNC(=O)c1nc(C)ccc1NC(=O)c1nc(C2CC2)cnc1Nc1cncnc1` [Example 182, 6-Cyclopropyl-3-(pyrimidin-5-ylamino)-pyrazine-2-carboxylic acid (6-methyl-2-methylcarbamoyl-pyridin-3-yl)-amide] is 3.5 nM; for `Cc1ccc(NC(=O)c2nc(C3CC3)cnc2Nc2cncnc2)c(C(=O)NCC(C)(C)O)n1` [Example 183, 6-Cyclopropyl-3-(pyrimidin-5-ylamino)-pyrazine-2-carboxylic acid [2-(2-hydroxy-2-methyl-propylcarbamoyl)-6-methyl-pyridin-3-yl]-amide] it is 0.3 nM; for `CNC(=O)c1c(NC(=O)c2nc(C(C)=O)cnc2Nc2cncnc2)cnn1C` [Example 184, 6-Acetyl-3-(pyrimidin-5-ylamino)-pyrazine-2-carboxylic acid (1-methyl-5-methylcarbamoyl-1H-pyrazol-4-yl)-amide] it is 162 nM.

The IC50 is the point on the concentration scale where inhibition reaches its midpoint.
